Data on 2 molecules can be found in patent US20070117770A1, “Human ribosomal DNA (rDNA) and ribosomal RNA (rRNA) nucleic acids and uses thereof” (Cylene Pharmaceuticals, Inc., priority 2005, published 2007).

What all share (assay): Protein kinase inhibition assay
For one assay, the target named is CHK1(h) (Homo sapiens, UniProt O14757). Type of assay: biochemical. As to conditions: read-out: percent residual activity of CHK1(h). Here is the method: (§1) Certain compounds were tested for activity in protein kinase inhibition assays. All substrates were dissolved and diluted to working stocks in de-ionized water, apart from histone H1 (10× working stock in 20 mM MOPS pH 7.0), PDKtide (10× working stock in 50 mM Tris pH 7.0) ATF2 (which is typically stored at a 20× working stock in 50 mM Tris pH 7.5, 150 mM NaCl, 0.1 mM EGTA, 0.03% Brij-35, 50% glycerol, 1 mM benzamidine, 0.2 mM PMSF and 0.1% R-mercaptoethanol), KKLNRTLSFAEPG (SEQ ID NO:203) and RRRLSFAEPG (SEQ ID NO:204) (50 mM HEPES pH 7.4) and GGEEEEYFELVKKKK (SEQ ID NO:205) (20 mM MOPS pH 7.0). All kinases were pre-diluted to a 10× working concentration prior to addition into the assay. The composition of the dilution buffer for each kinase is detailed below.
Sequence of CHK1(h) (O14757 whole entry): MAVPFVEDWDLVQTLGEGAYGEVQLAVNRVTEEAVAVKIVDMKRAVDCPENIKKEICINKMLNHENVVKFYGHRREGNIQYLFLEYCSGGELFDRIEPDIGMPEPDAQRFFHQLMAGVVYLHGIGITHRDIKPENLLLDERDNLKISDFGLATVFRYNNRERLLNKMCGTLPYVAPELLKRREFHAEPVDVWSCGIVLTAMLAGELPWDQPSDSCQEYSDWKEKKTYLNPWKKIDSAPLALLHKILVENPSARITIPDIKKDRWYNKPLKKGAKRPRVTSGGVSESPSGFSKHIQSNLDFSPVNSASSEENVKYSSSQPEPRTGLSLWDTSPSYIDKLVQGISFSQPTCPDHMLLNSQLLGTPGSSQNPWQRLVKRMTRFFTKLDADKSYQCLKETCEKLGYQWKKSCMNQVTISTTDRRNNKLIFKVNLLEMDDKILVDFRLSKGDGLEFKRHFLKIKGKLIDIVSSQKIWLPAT
In a final reaction volume of 25 μl, CHK1 (h) (5-10 mU) is incubated with 8 mM MOPS pH 7.0, 0.2 mM EDTA, 200 μM […] (SEQ ID NO:213), 10 mM MgAcetate and [gamma-33P-ATP] (specific activity approx. 500 cpm/pmol, concentration as required). The reaction is initiated by the addition of the MgATP mix. After incubation for 40 minutes at room temperature, the reaction is stopped by the addition of 5 μl of a 3% phosphoric acid solution. 10 μl of the reaction is then spotted onto a P30 filtermat and washed three times for 5 minutes in 75 mM phosphoric acid and once in methanol prior to drying and scintillation counting.

For a further assay, the target named is CaMKIV(h) (Homo sapiens, UniProt Q16566). Type of assay: biochemical. To be noted: read-out: percent residual activity of CaMKIV(h). Here is the method: as §1
In a final reaction volume of 25 μl, CaMKIV (h) (5-10 mU) is incubated with 40 mM HEPES pH 7.4, 5 mM CaCl2, 30 μg/ml calmodulin, 30 μM KKLNRTLSVA (SEQ ID NO:212), 10 mM MgAcetate and [gamma-33P-ATP] (specific activity approx. 500 cpm/pmol, concentration as required). The reaction is initiated by the addition of the MgATP mix. After incubation for 40 minutes at room temperature, the reaction is stopped by the addition of 5 μl of a 3% phosphoric acid solution. […]

The next assay concerns CaMKII(r). The assay is classed as biochemical, rat. To be noted: 2.5 μM. Here is the method:
as §1
In a final reaction volume of 25 μl, CaMKII (r) (5-10 mU) is incubated with 40 mM HEPES pH 7.4, 5 mM CaCl2, 30 μg/ml calmodulin, 30 μM KKLNRTLSVA (SEQ ID NO:212), 10 mM MgAcetate and [gamma-33P-ATP] (specific activity approx. 500 cpm/pmol, concentration as required). The reaction is initiated by the addition of the MgATP mix. After incubation for 40 minutes at room temperature, the reaction is stopped by the addition of 5 μl of a 3% phosphoric acid solution. […]

The target of another assay is PKCε(h) (Homo sapiens, UniProt Q02156). The assay is classed as biochemical. To be noted: read-out: percent residual activity of PKCε(h). The protocol: as §1
Sequence of PKCε(h) (Q02156 whole entry): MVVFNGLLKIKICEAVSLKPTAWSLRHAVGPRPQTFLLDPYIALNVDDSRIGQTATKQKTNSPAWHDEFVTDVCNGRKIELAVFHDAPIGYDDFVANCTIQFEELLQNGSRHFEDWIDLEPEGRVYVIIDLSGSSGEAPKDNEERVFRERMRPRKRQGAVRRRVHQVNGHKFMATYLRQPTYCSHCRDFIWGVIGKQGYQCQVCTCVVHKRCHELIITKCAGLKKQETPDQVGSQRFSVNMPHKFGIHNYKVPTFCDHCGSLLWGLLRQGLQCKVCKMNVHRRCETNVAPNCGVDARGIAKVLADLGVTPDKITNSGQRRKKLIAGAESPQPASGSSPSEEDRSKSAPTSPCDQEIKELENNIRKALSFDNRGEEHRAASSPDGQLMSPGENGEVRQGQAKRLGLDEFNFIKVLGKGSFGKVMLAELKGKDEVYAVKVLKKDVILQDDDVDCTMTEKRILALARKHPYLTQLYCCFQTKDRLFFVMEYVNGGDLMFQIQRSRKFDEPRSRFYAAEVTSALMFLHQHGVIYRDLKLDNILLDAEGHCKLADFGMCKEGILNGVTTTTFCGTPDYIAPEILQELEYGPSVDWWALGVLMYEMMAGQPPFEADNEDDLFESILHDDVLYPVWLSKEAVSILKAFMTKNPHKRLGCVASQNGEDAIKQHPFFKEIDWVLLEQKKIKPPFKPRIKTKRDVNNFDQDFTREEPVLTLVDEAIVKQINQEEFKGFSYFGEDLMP
In a final reaction volume of 25 μl, PKCε (h) (5-10 mU) is incubated with 20 mM HEPES pH 7.4, 0.03% Triton X-100, 0.1 mg/ml phosphatidylserine, 10 μg/ml diacylglycerol, 50 μM ERMRPRKRQGSVRRRV (SEQ ID NO:224), 10 mM MgAcetate and [gamma-33P-ATP] (specific activity approx. 500 cpm/pmol, concentration as required). The reaction is initiated by the addition of the MgATP mix. After incubation for 40 minutes at room temperature, the reaction is stopped by the addition of 5 pi of a 3% phosphoric acid solution. […]

For the next assay, the target named is Rsk2(h) (Homo sapiens, UniProt P51812). Type of assay: biochemical. As to conditions: read-out: percent residual activity of Rsk2(h). Here is the method: as §1
Sequence of Rsk2(h) (P51812 whole entry): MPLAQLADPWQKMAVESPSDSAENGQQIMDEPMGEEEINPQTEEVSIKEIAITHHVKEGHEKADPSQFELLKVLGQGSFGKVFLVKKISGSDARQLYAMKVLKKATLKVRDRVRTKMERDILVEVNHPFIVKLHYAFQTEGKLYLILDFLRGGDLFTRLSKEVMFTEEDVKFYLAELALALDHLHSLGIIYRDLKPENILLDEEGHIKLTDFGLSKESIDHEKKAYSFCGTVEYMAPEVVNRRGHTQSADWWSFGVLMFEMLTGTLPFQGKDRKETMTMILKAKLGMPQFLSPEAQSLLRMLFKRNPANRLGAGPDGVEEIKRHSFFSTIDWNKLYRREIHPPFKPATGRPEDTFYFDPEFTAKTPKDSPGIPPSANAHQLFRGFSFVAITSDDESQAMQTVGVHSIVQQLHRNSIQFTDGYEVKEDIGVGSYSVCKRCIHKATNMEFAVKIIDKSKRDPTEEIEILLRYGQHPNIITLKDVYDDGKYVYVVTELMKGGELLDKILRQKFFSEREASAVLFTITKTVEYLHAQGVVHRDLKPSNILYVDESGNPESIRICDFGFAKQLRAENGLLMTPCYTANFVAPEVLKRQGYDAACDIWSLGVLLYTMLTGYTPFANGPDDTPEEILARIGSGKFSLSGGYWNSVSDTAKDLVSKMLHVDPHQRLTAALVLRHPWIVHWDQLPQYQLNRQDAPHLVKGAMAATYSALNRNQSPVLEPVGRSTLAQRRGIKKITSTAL
In a final reaction volume of 25 μl, Rsk2 (h) (5-10 mU) is incubated with 8 mM MOPS pH 7.0, 0.2 mM EDTA, 30 μM KKKNRTLSVA (SEQ ID NO:212), 10 mM MgAcetate and [gamma-33P-ATP] (specific activity approx. 500 cpm/pmol, concentration as required). The reaction is initiated by the addition of the MgATP mix. After incubation for 40 minutes at room temperature, the reaction is stopped by the addition of 5 μl of a 3% phosphoric acid solution. 10 μl of the reaction is then spotted onto a P30 filtermat and washed three times for 5 minutes in 75 mM phosphoric acid and once in methanol prior to drying and scintillation counting.

The subject of the next assay is c-RAF(h). Type of assay: biochemical, human. To be noted: 2.5 μM. Here is the method: as §1
In a final reaction volume of 25 μl, c-RAF (h) (5-10 mU) is incubated with 25 mM Tris pH 7.5, 0.02 mM EGTA, 0.66 mg/ml myelin basic protein, 10 mM MgAcetate and [gamma-33P-ATP] (specific activity approx. 500 cpm/pmol, concentration as required). The reaction is initiated by the addition of the MgATP mix. After incubation for 40 minutes at room temperature, the reaction is stopped by the addition of 5 μl of a 3% phosphoric acid solution. 10 μl of the reaction is then spotted onto a P30 filtermat and washed three times for 5 minutes in 75 mM phosphoric acid and once in methanol prior to drying and scintillation counting.

For the molecule `CN1CCCC1CCNC(=O)c1cn2c3c(c(N4CCC(c5cnccn5)C4)c(F)cc3c1=O)Oc1cc3ccccc3cc1-2` (stereo not drawn) [Compound A-1], the remaining activity at 2.5 µM on CHK1(h) is 95%; at CaMKIV(h) it was 124%; at PKCε(h), 99%; at Rsk2(h), 60%. Moreover, in the assay with CaMKII(r), the “percent residual activity of CaMKII(r)” value is reported as 107%. In the assay with c-RAF(h), the “percent residual activity of c-RAF(h)” value is on record as 100%.
Regarding `CC(=O)N1CCN(c2ccc3c(=O)c(C(=O)NCCN4CCCC4)c4n(C)c5ccccc5n4c3n2)CC1` [Compound B-1], the remaining activity at 2.5 µM on CHK1(h) came out at 106%; at CaMKIV(h) it was 122%; on PKCε(h), 109%; on Rsk2(h), 106%. In addition, the “percent residual activity of CaMKII(r)” value with CaMKII(r) came to 113%. Besides, the “percent residual activity of c-RAF(h)” value in the assay on c-RAF(h) was found to be 96%.
